Structures are written as SMILES. Activity calls are given as the source filed them. The calls are words filed in the database; no cut-off is given here. Where only a bound is given, the exact number is not on record here.

For three molecules, EC50 and IC50 results are on record in ChEMBL document CHEMBL5209563, “FFN206 based assay for SLC18A1 using HEK-293 SLC18A1 OE cells” (2022).

The assay deals with T1, Chromaffin granule amine transporter (Homo sapiens, UniProt P54219).
T1 sequence (P54219 whole entry): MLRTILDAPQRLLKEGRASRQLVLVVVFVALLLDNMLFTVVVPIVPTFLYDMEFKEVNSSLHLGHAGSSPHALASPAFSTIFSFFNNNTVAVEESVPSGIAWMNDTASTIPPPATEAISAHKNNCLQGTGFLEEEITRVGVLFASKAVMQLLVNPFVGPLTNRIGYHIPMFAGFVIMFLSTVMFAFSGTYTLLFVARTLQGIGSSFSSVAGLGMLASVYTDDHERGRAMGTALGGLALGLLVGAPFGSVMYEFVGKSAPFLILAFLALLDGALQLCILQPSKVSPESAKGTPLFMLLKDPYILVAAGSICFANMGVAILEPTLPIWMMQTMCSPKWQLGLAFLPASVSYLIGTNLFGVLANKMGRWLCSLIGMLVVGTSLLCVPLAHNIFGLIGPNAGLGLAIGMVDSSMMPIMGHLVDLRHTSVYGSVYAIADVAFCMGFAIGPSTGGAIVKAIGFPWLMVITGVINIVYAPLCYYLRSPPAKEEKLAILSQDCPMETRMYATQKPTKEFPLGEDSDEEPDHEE
The assay can be described thus: Substrate uptake and inhibition of the chromaffin granule amine transporter (VAT1, VMAT1, SLC18A1) as assessed by uptake of a fluorescent substrate (FFN206) in HEK-293 JumpIN-SLC18A1 cells (PubChem AID: 1794818). It is filed as functional, cell-based, HEK293.

A word on the EC50: it is the midpoint of the concentration-response curve. Low readings indicate a more potent agent, high ones a less potent agent. Molecule `CNc1ccc2c(CCN)cc(=O)oc2c1` showed a concentration for a half-maximal effect (EC50) of 2 µM. Usually IC50 stands for the concentration that gives 50% inhibition. The molecule `COC(=O)[C@H]1[C@H]2C[C@@H]3c4[nH]c5cc(OC)ccc5c4CCN3C[C@H]2C[C@@H](OC(=O)c2cc(OC)c(OC)c(OC)c2)[C@@H]1OC` [RESERPINE] yielded an IC50 of 0.05 µM.

Take `COc1cc2c(cc1OC)C1CC(=O)C(CC(C)C)CN1CC2` (stereo not drawn) [TETRABENAZINE]: the IC50 is > 10 µM (inactive).
